For assay [1], the system named is partial-thickness pig skin burn wounds. Kind of assay: Partial-thickness porcine burn wound outcomes. In kind it is in vivo. The procedure:
Animals were sedated with Talazine® ([…] Zolazepam, Fort Dodge Lab, Fort Dodge, Iowa) 5 mg/kg IM. The pigs were then intubated endotracheally and maintained under a surgical plane of anesthesia with isoflurane 0.5-2.5% in room air. The flank and back hair was clipped with hair clippers and the skin was scrubbed with a povidine iodine solution. Standardized partial thickness burns were created on the animals' backs and flanks by applying a 2.5 cm by 2.5 cm, 150 gram aluminum bar preheated in hot water to 80° C. The heated bar was wiped dry just prior to application to prevent water droplets from creating a steam burn on the skin. The bar was then placed at a vertical position perpendicular to the skin's surface and applied for a period of 20 seconds with all pressure supplied by gravity. […] In order to simulate burn blister debridement and enhance the absorption of the topical agents, the necrotic epidermis was gently removed by rubbing the burn with dry gauze. Removal of the necrotic epidermis results in delayed reepithelialization, and increased scar formation^17. Twenty burns were inflicted on each of 2 pigs (evenly distributed between both side of the pigs), for a total of 40 burns. The agent used in the studies is PEG-β1^25 (SEQ ID NO: 8) This particular peptide was chosen after screening seven pentacosapeptides whose amino acids overlap and cover most of the human TGF-β1 molecule, the monomer of which has 112 amino acid residues. […] Furthermore, the chosen peptide was also shown to block the cellular responses to TGF-β1 such as DNA synthesis and transcriptional activation of PAI-1. […] TGF-β peptantagonist PEG-β1^25 in PBS was mixed with Sterile IntraSite gel from Smith and Nephew Medical, Ltd. (UK) at a ratio of 1:3 (v/v). The pigs were randomized to treatment with topical PEG-β1^25 peptantagonist (SEQ ID NO: 8) or its vehicle (carboxy methylcellulose, IntraSite Gel, Smith and Nephew, Largo, Fla.) immediately after injury and at days 3, 5, 7, 10, 14, 18, 21, and 25. A thin layer of the topical treatment was applied with a sterile metal spatula. Group randomization order was determined by drawing unlabeled forms from an opaque container. After applying the topical therapy, the burns were covered with dry non-adherent gauze ([…] Company, Mansfield, Mass.). The burned areas were then covered with a gauze bandage roll (Conform®), Kendall Healthcare Products Company, Mansfield, Mass.) and an adhesive elastic bandage (Elastoplast®, Beiersdorf-Jobst, Inc., Rutherford College, N.C.). The adhesive dressing was secured to the skin at a distance from the burns with skin staples. Animals were observed frequently for signs of pain or discomfort and treated with IM buprenorphine 0.01 mg/kg as needed. Dressing changes were performed with each application of the topical agents. At each dressing change all gauze dressings were removed and the wounds were observed and the study agent was reapplied. All burns were then re-covered with non-adherent gauze and elastic wrap as previously described. Full thickness 4-mm punch biopsies (Miltex Instrument Company Inc., Lake Success, N.Y.) were taken after 7, 10, and 14 days for blinded histopathological evaluation by a board-certified dermatopathologist masked to treatment assignment. The entire wound was excised at 28 days and submitted for histological evaluation. Digital photos were taken prior to biopsy to determine the presence of wound contraction defined as an hourglass like shape. Histopathological studies were done on formalin-fixed, alcohol-dehydrated, xylene-cleared, paraffin-embedded, hematoxylin and eosin stained 5 μm sections using conventional microscopy. The primary outcome was the percent of wounds healing with wound contraction. Secondary outcomes were percent reepithelialization, percent wound infection, and the percent of wounds with scars extending through the entire thickness of the dermis. […]

In assay [2] the test system is PAI-1. Kind of assay: Block of TGF-β-induced expression / transcriptional activation of PAI-1. Type of assay: cell-based, mink. An excerpt:
(§1) By “treating or preventing alopecia” is meant the ability to cure, reduce or prevent one or more clinical symptoms of alopecia, including, but not limited to, hair loss, cornification, scaling, uneven thickness, persistent itch, inflammation, and rapid epithelial cell turnover in the skin. Treating alopecia also includes the promotion of hair growth at the site of the hair loss. The methods of the invention also encompass promotion or stimulation of hair growth in general (e.g. to thicken naturally thin hair). […] It was also discovered that at least four consecutive amino acids comprising W(or R)XXD (wherein X is any amino acid) motif in the sequences, determines their potencies and that they block TGF-β-induced growth inhibition and TGF-β-induced expression of PAI-1 in mink lung epithelial cells and other cell types (U.S. Pat. No. 6,500,920 issued Dec. 31, 2002). As was previously disclosed by the inventors, such peptides are effective in inhibiting, ameliorating or reversing the effects of TGF-β in biological systems including but not limited to reducing scarring wounds, to prevent lung injury in adult respiratory distress syndrome (ARDS), and injuries of other tissues caused by pharmacological agents (e.g. bladder injury caused by cyclophosphamide). […]

Assay [3] deals with TGF-β receptors in mink lung epithelial cells. Kind of assay: Inhibition of labeled TGF-β binding to TGF-β receptors in mink lung epithelial cells. The settings on record: screen of seven pentacosapeptides.
Description: as §1

The subject of assay [4] is mink lung epithelial cells. Kind of assay: Block of TGF-β-induced growth inhibition / DNA synthesis response. Type of assay: cell-based.
Description: as §1

Setting [5] is: day 28, of 20 burns, full thickness scars.

The source of these data is patent publication US8110655B2, “Method to promote hair growth and/or delay or treat hair loss by administering a TGF-β antagonist or inhibitor” (Auxagen, Inc., priority 2006, dated 2012).

Where no end group is shown, it is not given here. PEG = not defined here

On to “PEG-β1^25: β1^25 (SEQ ID NO: 8) pegylated at the N-terminal alpha-amino group and at the epsilon-amino group ({PEG}-ANFSLGPSPYIWSLDTQYSK(PEG)VLALY; reading uncertain; listed as Homo Sapiens)”, for which the “Percent wound reepithelialization, day 7” value in assay [1] (day 7, 20 burns) is reported as 14.2 (28.8) %. In addition, the “Percent wound reepithelialization, day 10” value in assay [1] (day 10, 20 burns) is recorded as 46.3 (44.4) %. In assay [1] (day 14, 20 burns), the “Percent wound reepithelialization, day 14” value is recorded as 91.9 (25.7) %. For the same substance, in assay [1] (day 14, of 20 burns), the “% wounds completed reepithelialized, day 14” value was found to be 90% and the “No. wounds completed reepithelialized, day 14” value came out at 18. Moreover, in assay [1] (day 28, of 20 burns), the “% contracted wounds, day 28” value is reported as 35% and the “No. contracted wounds, day 28” value is 7. Also, in assay [1] (setting [5]), the “% deep scars, day 28” value was determined as 10% and the “No. deep scars, day 28” value is recorded as 2. Further, the “hair growth in treated wounds” value in assay [1] (partial-thickness burn, topical gel) is recorded as “exhibited hair growth”. In addition, the “Mean Difference (95% CI) in percent wound reepithelialization, day 7” value in assay [1] (versus control vehicle, day 7) is 7.9 (−8.2-24.1). In assay [1] (versus control vehicle, day 10), the “Mean Difference (95% CI) in percent wound reepithelialization, day 10” value is on record as 20.9 (−6.1-48.0). For the same substance, the “Mean Difference (95% CI) in percent wound reepithelialization, day 14” value in assay [1] (versus control vehicle, day 14) was 19.5 (−2.5-41.5). Besides, the “block of cellular response to TGF-β1: transcriptional activation of PAI-1” value in assay [2] is recorded as “block”. Moreover, the “inhibition of binding of labeled TGF-β1 to its receptor” value in assay [3] is reported as “completely inhibited”. Further, the “block of cellular response to TGF-β1: DNA synthesis” value in assay [4] was “block”.
